# From patent US20180230122A1, “PRODUCTION METHOD FOR HETEROARYLCARBOXYLIC ACID ESTER DERIVATIVE, PRODUCTION INTERMEDIATE THEREOF, AND CRYSTAL” (EA PHARMA CO., LTD., priority 2014, published 2018)
# Where a name gives a salt, the structure may show the parent alone.
# Assay: Preservation stability of the crystal at 40° C/75% RH for 6 months (water content by Karl-Fischer, content by HPLC)
# Format: physicochemical
# Details: for content (%) (converted into dehydrated form): HPLC method; for water content (%): Karl-Fischer method
# Experimental: A crystal of 3-[5-(4-carbamimidoyl-2-fluorophenoxy)carbonyl-2-thienyl]-2,2-dimethylpropanoic acid hydrochloride obtained by the method of Example 3 was preserved for 6 months under 40° C/75% RH conditions. […] Therefore, the crystalline form is useful as a crystalline form of a drug substance for pharmaceutical products.
# The water content was measured by the Karl-Fischer method, and the content was measured by the HPLC method using a column charged with octadecylsilyl silica gel for liquid chromatography.
structure (smiles),measurement,setting,value
"CC(C)(Cc1ccc(C(=O)Oc2ccc(C(=N)N)cc2F)s1)C(=O)O [Example 3, 3-[5-(4-carbamimidoyl-2-fluorophenoxy)carbonyl-2-thienyl]-2,2-dimethylpropanoic acid hydrochloride]",content (%) (converted into dehydrated form),6 months at 40° C/75% RH,99.5%
same,water content (%),6 months at 40° C/75% RH,0.1%
same,preservation stability of the crystal,40° C./75% RH for 6 months,stable
same,content (%) (converted into dehydrated form),start,99.5%
same,water content (%),start,0.1%
